Reference: PubChem BioAssay AID330 (DTP/NCI, 2004)
Several values for one entry are separate records, joined by “and”; a condition that tells them apart may be missing. Equal values may be shown once. Toxic doses and inconclusive results are not listed. How the source made its calls: active means survival T/C of 150% or more; inactive means T/C below 125% in these data.

Test system: P388 leukemia ip, CD2F1 mice, survival T/C
Test: NCI In Vivo Anticancer Drug Screen. Data for tumor model P388 Leukemia (intraperitoneal) in CD2F1 (CDF1) mice
Settings: endpoint: median survival time, higher = longer survival
How it was run: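 Mice carrying the transplanted tumor received test compound or vehicle. Survival was recorded in each group, and the value is the treated-group measurement divided by that of the vehicle-treated control group.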

[1] = dose: 50.0 mg/kg/injection, schedule: Q01DX005 (ip), vehicle: Klucel (hydroxypropylcellulose) (HPC)
[2] = dose: 100.0 mg/kg/injection, schedule: Q01DX005 (ip), vehicle: Klucel (hydroxypropylcellulose) (HPC)
[3] = dose: 200.0 mg/kg/injection, schedule: Q01DX005 (ip), vehicle: Klucel (hydroxypropylcellulose) (HPC)
[4] = dose: 60.0 mg/kg/injection, schedule: Q01DX005 (ip), vehicle: saline with Tween-80
[5] = dose: 120.0 mg/kg/injection, schedule: Q01DX005 (ip), vehicle: saline with Tween-80
[6] = dose: 240.0 mg/kg/injection, schedule: Q01DX005 (ip), vehicle: saline with Tween-80
[7] = dose: 50.0 mg/kg/injection, schedule: Q01DX005 (ip), vehicle: saline with Tween-80
[8] = dose: 100.0 mg/kg/injection, schedule: Q01DX005 (ip), vehicle: saline with Tween-80
[9] = dose: 200.0 mg/kg/injection, schedule: Q01DX005 (ip), vehicle: saline with Tween-80
[10] = dose: 50.0 mg/kg/injection, schedule: Q01DX005 (ip), vehicle: saline
[11] = dose: 100.0 mg/kg/injection, schedule: Q01DX005 (ip), vehicle: saline
[12] = dose: 200.0 mg/kg/injection, schedule: Q01DX005 (ip), vehicle: saline
[13] = dose: 50.0 mg/kg/injection, schedule: Q01DX009 (ip), vehicle: saline with Tween-80
[14] = dose: 50.0 mg/kg/injection, schedule: Q01DX009 (ip), vehicle: saline
[15] = dose: 100.0 mg/kg/injection, schedule: Q01DX009 (ip), vehicle: saline with Tween-80

Measured: T/C

CCCCCCCCC1SC1CCCCCCCC(=O)OCC1CS1 (stereo unspecified)
inactive: dose: 100.0 mg/kg/injection, schedule: Q01DX001 (ip), vehicle: other 100 % of control | dose: 200.0 mg/kg/injection, schedule: Q01DX001 (ip), vehicle: other 100 % of control | dose: 400.0 mg/kg/injection, schedule: Q01DX001 (ip), vehicle: other 100 % of control

COc1ccc(CCNC(=O)c2sc3ccccc3c2Cl)cc1OC
inactive: [1] 88 % of control | [2] 91 % of control | [3] 99 % of control

CCC(=O)OCc1c(Cl)nc2n1CCS2
inactive: dose: 100.0 mg/kg/injection, schedule: Q01DX001 (ip), vehicle: Klucel (hydroxypropylcellulose) (HPC) 100 % of control | dose: 200.0 mg/kg/injection, schedule: Q01DX001 (ip), vehicle: Klucel (hydroxypropylcellulose) (HPC) 100 % of control

CN1CCN=C1c1ccc(NC(=O)c2ccc(C(=O)Nc3ccc(C4=NCCN4C)cc3)c([N+](=O)[O-])c2)cc1
inactive: dose: 0.78 mg/kg/injection, schedule: Q01DX005 (ip), vehicle: saline with Tween-80 110 % of control and 113 % of control | dose: 1.56 mg/kg/injection, schedule: Q01DX005 (ip), vehicle: saline with Tween-80 112 % of control and 114 % of control | dose: 3.13 mg/kg/injection, schedule: Q01DX005 (ip), vehicle: saline with Tween-80 124 % of control

CCOC(=O)C1CSC(c2ccccc2)=N1 (stereo unspecified)
inactive: [4] 109 % of control | [5] 111 % of control | [6] 111 % of control

CCN(CC)CCOc1ccc(Cl)c(Cl)c1
inactive: [7] 101 % of control | [8] 106 % of control | [9] 106 % of control

COC(CC[S+](C)C)C(=O)O (stereo unspecified)
inactive: dose: 32.0 mg/kg/injection, schedule: Q01DX005 (ip), vehicle: water 105 % of control | dose: 64.0 mg/kg/injection, schedule: Q01DX005 (ip), vehicle: water 97 % of control | dose: 128.0 mg/kg/injection, schedule: Q01DX005 (ip), vehicle: water 102 % of control | dose: 256.0 mg/kg/injection, schedule: Q01DX005 (ip), vehicle: water 101 % of control

Cc1c([C@H](C)[C@@H]2NC[C@@H](C)C[C@H]2O)ccc2c1C[C@H]1[C@H]2CC=C2C[C@@H](O)CC[C@@]21C
inactive: dose: 0.75 mg/kg/injection, schedule: Q01DX009 (ip), vehicle: saline with Tween-80 108 % of control | dose: 1.5 mg/kg/injection, schedule: Q01DX009 (ip), vehicle: saline with Tween-80 115 % of control | dose: 3.0 mg/kg/injection, schedule: Q01DX009 (ip), vehicle: saline with Tween-80 101 % of control and 113 % of control

Cc1ccc2nc(N(C)C)nc-2c2[nH]c(=O)[nH]c12
inactive: dose: 8.25 mg/kg/injection, schedule: Q01DX005 (ip), vehicle: saline 110 % of control | dose: 16.5 mg/kg/injection, schedule: Q01DX005 (ip), vehicle: saline 110 % of control | dose: 33.0 mg/kg/injection, schedule: Q01DX005 (ip), vehicle: saline 107 % of control | dose: 66.0 mg/kg/injection, schedule: Q01DX005 (ip), vehicle: saline 102 % of control

CCCCn1[nH]nc(C(=O)OC)c1=O (tested in a mixture with another compound)
inactive: [10] 105 % of control | [11] 102 % of control | [12] 94 % of control

O=C(Nc1ccc(Cl)c(Cl)c1)Sc1ccc(O)cc1
inactive: dose: 12.5 mg/kg/injection, schedule: Q01DX009 (ip), vehicle: saline 91 % of control | dose: 25.0 mg/kg/injection, schedule: Q01DX009 (ip), vehicle: saline 91 % of control | [13] 96 % of control | [14] 117 % of control | [15] 91 % of control

O=C(Nc1c(Cl)cccc1Cl)OCc1ccco1
inactive: dose: 60.0 mg/kg/injection, schedule: Q01DX005 (ip), vehicle: Klucel (hydroxypropylcellulose) (HPC) 105 % of control | dose: 120.0 mg/kg/injection, schedule: Q01DX005 (ip), vehicle: Klucel (hydroxypropylcellulose) (HPC) 102 % of control | dose: 240.0 mg/kg/injection, schedule: Q01DX005 (ip), vehicle: Klucel (hydroxypropylcellulose) (HPC) 100 % of control

O=[N+]([O-])c1ccc(/C(=C/c2ccc(Cl)cc2Cl)S(=O)(=O)C(Cl)Cl)o1
inactive: dose: 50.0 mg/kg/injection, schedule: Q01DX009 (ip), vehicle: suspension in saline 86 % of control | dose: 100.0 mg/kg/injection, schedule: Q01DX009 (ip), vehicle: suspension in saline 96 % of control | dose: 200.0 mg/kg/injection, schedule: Q01DX009 (ip), vehicle: suspension in saline 103 % of control

NC(CSS(=O)(=O)O)C(=O)O (stereo unspecified)
inactive: [10] 101 % of control | [11] 106 % of control | [12] 101 % of control

COc1ccc(Cc2nnc(SC)n2-c2ccc(F)cc2)cc1OC
inactive: [4] 102 % of control | [5] 95 % of control | [6] 102 % of control

CN1CC2c3ccccc3C(=O)C1(O)c1ccccc12 (stereo unspecified)
inactive: [7] 103 % of control | [8] 103 % of control | [9] 103 % of control

O=P(c1ccccc1)(c1ccccc1)c1ccccc1OCCCO
inactive: [1] 99 % of control | [2] 100 % of control | [3] 97 % of control

CN(C)c1cccc2c(S(=O)(=O)NCCCCCCCCCCCCN)cccc12
inactive: dose: 100.0 mg/kg/injection, schedule: Q01DX001 (ip), vehicle: saline + Tween-80 + alcohol 105 % of control

COc1ccc(-c2cc(-c3ccccc3)c(-c3ccccc3)nn2)cc1CN1CCOCC1
inactive: [13] 99 % of control | [15] 100 % of control | dose: 200.0 mg/kg/injection, schedule: Q01DX009 (ip), vehicle: saline with Tween-80 95 % of control

Cc1cc(N/N=C/c2ccc(N(CCCl)CCCl)cc2)nc2ccc(Cl)cc12
inactive: [14] 97 % of control | dose: 100.0 mg/kg/injection, schedule: Q01DX009 (ip), vehicle: saline 100 % of control | dose: 200.0 mg/kg/injection, schedule: Q01DX009 (ip), vehicle: saline 100 % of control

O=S(=O)(O)CCC(O)S(=O)(=O)O (stereo unspecified)
inactive: dose: 60.0 mg/kg/injection, schedule: Q01DX005 (ip), vehicle: saline 102 % of control | dose: 120.0 mg/kg/injection, schedule: Q01DX005 (ip), vehicle: saline 108 % of control | dose: 240.0 mg/kg/injection, schedule: Q01DX005 (ip), vehicle: saline 94 % of control

COc1ccc(CCN(C=O)CCc2ccc(OC)c(OC)c2)cc1OC
inactive: dose: 25.0 mg/kg/injection, schedule: Q01DX009 (ip), vehicle: other 97 % of control | dose: 100.0 mg/kg/injection, schedule: Q01DX009 (ip), vehicle: other 109 % of control | dose: 200.0 mg/kg/injection, schedule: Q01DX009 (ip), vehicle: other 101 % of control | dose: 400.0 mg/kg/injection, schedule: Q01DX009 (ip), vehicle: other 103 % of control

COC(=O)C1=C(C(=O)OC)P2(C)(C)ON=C(c3c(C)cc(C)cc3C)N2C1(c1ccccc1)c1ccccc1
inactive: [1] 100 % of control and 95 % of control | [2] 93 % of control | [3] 91 % of control and 94 % of control
